In patent publication US20220227789A1, “NOVEL INDOLIZINE-2-CARBOXAMIDES ACTIVE AGAINST THE HEPATITIS B VIRUS (HBV)” (AiCuris GmbH & Co. KG, priority 2019, published 2022) one finds EC50 and IC50 data, which are given here for 19 compounds.

One experiment concerns HBV. As to the kind of experiment: HBV replication assay: HBV DNA from the supernatants of HepAD38 cells. It is filed as cell-based. Particulars: Hepatitis B virus, 144 h, HBV DNA in supernatant by qPCR at day 6, read-out: Cell Activity. The method, then: Determination of HBV DNA from the Supernatants of HepAD38 Cells
The anti-HBV activity was analysed in the stable transfected cell line HepAD38, which has been described to secrete high levels of HBV virion particles (Ladner et al., 1997). In brief, HepAD38 cells were cultured at 37° C. at 5% CO2 and 95% humidity in 200 μl maintenance medium, which was Dulbecco's modified Eagle's medium/Nutrient Mixture F-12 (Gibco, Karlsruhe), 10% fetal bovine serum (PAN Biotech Aidenbach) supplemented with 50 μg/ml penicillin/streptomycin (Gibco, Karlsruhe), 2 mM L-glutamine (PAN Biotech, Aidenbach), 400 μg/ml G418 (AppliChem, Darmstadt) and 0.3 μg/ml tetracycline. Cells were subcultured once a week in a 1:5 ratio, but were usually not passaged more than ten times. For the assay 60,000 cells were seeded in maintenance medium without any tetracycline into each well of a 96-well plate and treated with serial half-log dilutions of test compound. To minimize edge effects the outer 36 wells of the plate were not used but were filled with assay medium. On each assay plate six wells for the virus control (untreated HepAD38 cells) and six wells for the cell control (HepAD38 cells treated with 0.3 μg/ml tetracycline) were allocated, respectively. In addition, one plate set with reference inhibitors like BAY 41-4109, entecavir, and lamivudine instead of screening compounds were prepared in each experiment. In general, experiments were performed thrice in triplicates. At day 6 HBV DNA from 100 μl filtrated cell culture supernatant (AcroPrep Advance 96 Filter Plate, […] Supor membran, PALL GmbH, Dreieich) was automatically purified on the MagNa Pure LC instrument using the MagNA Pure 96 DNA and Viral NA Small Volume Kit (Roche Diagnostics, Mannheim) according to the instructions of the manufacturer. EC50 values were calculated from relative copy numbers of HBV DNA In brief, 5 μl of the 100 μl eluate containing HBV DNA were subjected to PCR LC480 Probes Master Kit (Roche) together with 1 μM antisense primer […], 0.5 μM sense primer […], 0.3 μM hybprobes […]-FL and LC640-[…]-PH (TIBMolBiol, Berlin) to a final volume of […]. The PCR was performed on the Light Cycler 480 real time system (Roche Diagnostics, Mannheim) using the following protocol: Pre-incubation for 1 min at 95° C., amplification: 40 cycles×(10 sec at 95° C., 50 sec at 60° C., 1 sec at 70° C.), cooling for 10 sec at 40° C. Viral load was quantitated against known standards using HBV plasmid DNA of pCH-9/3091 (Nassal et al., 1990, Cell 63: 1357-1363) and the LightCycler 480 SW 1.5 software (Roche Diagnostics, Mannheim) and EC50 values were calculated using non-linear regression with GraphPad Prism 6 (GraphPad Software Inc., La Jolla, USA).

The target in experiment [1] is T1, HBV core protein (C-terminal truncated, 149 aa assembly domain) (Hepatitis B virus genotype D subtype adw, UniProt P03147, C107A/C48A/C61A).
T1 construct: The C-terminal truncated core protein containing 149 amino acids of the N-terminal assembly domain; made in house; host or cells: E. coli BL21 (DE3) Rosetta2, plasmid pET21b
T1 sequence (P03147 1-150, looked up, stated change not applied): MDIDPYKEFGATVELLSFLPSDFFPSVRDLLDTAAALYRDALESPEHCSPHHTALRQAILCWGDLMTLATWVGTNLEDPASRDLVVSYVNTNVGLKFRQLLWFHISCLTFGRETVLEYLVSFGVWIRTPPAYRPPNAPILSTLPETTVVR
In words: Biochemical capsid assembly assay (fluorescence quenching). The method, then:
Biochemical Capsid Assembly Assay
The screening for assembly effector activity was done based on a fluorescence quenching assay published by Zlotnick et al. (2007). The C-terminal truncated core protein containing 149 amino acids of the N-terminal assembly domain fused to a unique cysteine residue at position 150 and was expressed in E. coli using the pET expression system (Merck Chemicals, Darmstadt). Purification of core dimer protein was performed using a sequence of size exclusion chromatography steps. In brief, the cell pellet from 1 L BL21 (DE3) Rosetta2 culture expressing the coding sequence of core protein cloned NdeI/XhoI into expression plasmid pET21b was treated for 1 h on ice with a native lysis buffer (Qproteome Bacterial Protein Prep Kit; Qiagen, Hilden). After a centrifugation step the supernatant was precipitated during 2 h stirring on ice with 0.23 g/ml of solid ammonium sulfate. Following further centrifugation the resulting pellet was resolved in buffer A (100 mM Tris, pH 7.5; 100 mM NaCl; 2 mM DTT) and was subsequently loaded onto a buffer A equilibrated CaptoCore 700 column (GE HealthCare, Frankfurt). The column flow through containing the assembled HBV capsid was dialyzed against buffer N (50 mM NaHCO3 pH 9.6; 5 mM DTT) before urea was added to a final concentration of 3M to dissociate the capsid into core dimers for 1.5 h on ice. The protein solution was then loaded onto a 1 L Sephacryl 5300 column. After elution with buffer N core dimer containing fractions were identified by SDS-PAGE and subsequently pooled and dialyzed against 50 mM HEPES pH 7.5; 5 mM DTT. To improve the assembly capacity of the purified core dimers a second round of assembly and disassembly starting with the addition of 5 M NaCl and including the size exclusion chromatography steps described above was performed. From the last chromatography step core dimer containing fractions were pooled and stored in aliquots at concentrations between 1.5 to 2.0 mg/ml at −80° C.
Immediately before labelling the core protein was reduced by adding freshly prepared DTT in a final concentration of 20 mM. After […] on ice storage buffer and DTT was removed using a Sephadex G-25 column (GE HealthCare, Frankfurt) and 50 mM HEPES, pH 7.5. For labelling 1.6 mg/ml core protein was incubated at 4° C. and darkness overnight with BODIPY-FL maleimide (Invitrogen, Karlsruhe) in a final concentration of 1 mM. After labelling the free dye was removed by an additional desalting step using a Sephadex G-25 column. Labelled core dimers were stored in aliquots at 4° C. In the dimeric state the fluorescence signal of the labelled core protein is high and is quenched during the assembly of the core dimers to high molecular capsid structures. The screening assay was performed in black 384 well microtiter plates in a total assay volume of 10 μl using 50 mM HEPES pH 7.5 and 1.0 to 2.0 μM labelled core protein. Each screening compound was added in 8 different concentrations using a 0.5 log-unit serial dilution starting at a final concentration of 100 μM, 31.6 μM or 10 μM, In any case the DMSO concentration over the entire microtiter plate was 0.5%. The assembly reaction was started by the injection of NaCl to a final concentration of […] which induces the assembly process to approximately 25% of the maximal quenched signal. 6 min after starting the reaction the fluorescence signal was measured using a Clariostar plate reader (BMG Labtech, Ortenberg) with an excitation of 477 nm and an emission of 525 nm. As 100% and 0% assembly control HEPES buffer containing 2.5 M and 0 M NaCl was used. Experiments were performed thrice in triplicates. EC50 values were calculated by non-linear regression analysis using the Graph Pad Prism 6 software (GraphPad Software, La Jolla, USA).

Setting [2] is: BODIPY-FL labelled core protein, assembly started with NaCl, read after 6 min, read-out: Assembly Activity.

Like-named read-outs stand apart in the source and are kept apart here.

Consider `CC(NC(=O)c1[nH]nc2c1CN(C(=O)c1cc3ccccn3c1)CC2)C(F)(F)F` (stereo not shown) [Example 52, 5-(indolizine-2-carbonyl)-N-[1,1,1-trifluoropropan-2-yl]-2H,4H,5H,6H,7H-pyrazolo[4,3-c]pyridine-3-carboxamide], for which the EC50 with HBV was less than 100 µM.

In the case of `O=C(c1cc2ccccn2c1)N1CCc2noc(-c3cscn3)c2C1` [Example 34, 2-[3-(1,3-thiazol-4-yl)-4H,5H,6H,7H-[1,2]oxazolo[4,3-c]pyridine-5-carbonyl]indolizine], the IC50 in experiment [1] (setting [2]) is less than 5 µM.

For the compound `O=C(c1cc2ccccn2c1)N1CCc2[nH]nc(-c3cscn3)c2C1` [Example 37, 2-[3-(1,3-thiazol-4-yl)-1H,4H,5H,6H,7H-pyrazolo[4,3-c]pyridine-5-carbonyl]indolizine], in experiment [1] (setting [2]), the IC50 is less than 5 µM.

As to `O=C(NC1(C(F)(F)F)CC1)c1[nH]nc2c1CN(C(=O)c1cc3ccccn3c1)CC2` [Example 33, 5-(indolizine-2-carbonyl)-N-[1-(trifluoromethyl)cyclopropyl]-2H,4H,5H,6H,7H-pyrazolo[4,3-c]pyridine-3-carboxamide], in experiment [1] (setting [2]), the IC50 is less than 100 µM.

For `CC1Cc2[nH]nc(-c3cscn3)c2CN1C(=O)c1cn2ccccc2c1Br` (stereo not shown) [Example 11, 1-bromo-2-[6-methyl-3-(1,3-thiazol-4-yl)-1H,4H,5H,6H,7H-pyrazolo[4,3-c]pyridine-5-carbonyl]indolizine], the EC50 with HBV lay in the range of 1 to 10 µM.

For `C[C@H](NC(=O)c1[nH]nc2c1CN(C(=O)c1cc3ccccn3c1)CC2)C(F)(F)F` [Example 45, 5-(indolizine-2-carbonyl)-N-[(2S)-1,1,1-trifluoropropan-2-yl]-2H,4H,5H,6H,7H-pyrazolo[4,3-c]pyridine-3-carboxamide], in experiment [1] (setting [2]), the IC50 was less than 100 µM.

As for `O=C(c1cc2ccccn2c1)N1CCn2ncc(-c3cscn3)c2C1` [Example 43, 2-[3-(1,3-thiazol-4-yl)-4H,5H,6H,7H-pyrazolo[1,5-a]pyrazine-5-carbonyl]indolizine], the IC50 in experiment [1] (setting [2]) was less than 5 µM.

Consider `O=C(c1cc2c(F)cc(F)cn2c1)N1CCc2n[nH]c(C(=O)N3CC(F)(F)CC34CC4)c2C1` [Example 2, 6,8-difluoro-2-(3-{6,6-difluoro-4-azaspiro[2.4]heptane-4-carbonyl}-2H,4H,5H,6H,7H-pyrazolo[4,3-c]pyridine-5-carbonyl)indolizine], for which the EC50 in the experiment with HBV was in the range of 1 to 10 µM.

As to `O=C(NCC1CCCO1)c1[nH]nc2c1CN(C(=O)c1cc3ccccn3c1)CC2` (stereo not shown) [Example 29, 5-(indolizine-2-carbonyl)-N-[(oxolan-2-yl)methyl]-2H,4H,5H,6H,7H-pyrazolo[4,3-c]pyridine-3-carboxamide], the IC50 in experiment [1] (setting [2]) is less than 100 µM.

For the compound `CC1Cc2n[nH]c(C(=O)NC(C)C(F)(F)F)c2CN1C(=O)c1cc2ccccn2c1` (stereo not shown) [Example 48, 5-(indolizine-2-carbonyl)-6-methyl-N-(1,1,1-trifluoropropan-2-yl)-2H,4H,5H,6H,7H-pyrazolo[4,3-c]pyridine-3-carboxamide], the IC50 in experiment [1] (setting [2]) was less than 100 µM.

In turn, `O=C(c1cc2ccccn2c1)N1CCc2onc(-c3cscn3)c2C1` [Example 36, 2-[3-(1,3-thiazol-4-yl)-4H,5H,6H,7H-[1,2]oxazolo[4,5-c]pyridine-5-carbonyl]indolizine] returned an IC50 in experiment [1] of less than 5 µM.

As for `CC1Cc2[nH]nc(-c3cscn3)c2CN1C(=O)c1cc2c(F)cc(F)cn2c1` (stereo not shown) [Example 44, 6,8-difluoro-2-[6-methyl-3-(1,3-thiazol-4-yl)-1H,4H,5H,6H,7H-pyrazolo[4,3-c]pyridine-5-carbonyl]indolizine], the IC50 in experiment [1] (setting [2]) was less than 5 µM.

Take `O=C(c1cc2ccccn2c1)N1CCc2[nH]nc(-c3ccon3)c2C1` [Example 31, 2-[3-(1,2-oxazol-3-yl)-1H,4H,5H,6H,7H-pyrazolo[4,3-c]pyridine-5-carbonyl]indolizine]: the IC50 in experiment [1] (setting [2]) was less than 5 µM.

Turning to `CC1Cc2n[nH]c(C(=O)NC(C)C(F)(F)F)c2CN1C(=O)c1cc2c(Cl)cccn2c1` (stereo not shown) [Example 47, 5-(8-chloroindolizine-2-carbonyl)-6-methyl-N-(1,1,1-trifluoropropan-2-yl)-2H,4H,5H,6H,7H-pyrazolo[4,3-c]pyridine-3-carboxamide], the IC50 in experiment [1] (setting [2]) was less than 100 µM.

On to `CC(C)(NC(=O)c1[nH]nc2c1CN(C(=O)c1cc3ccccn3c1)CC2)C(F)(F)F` [Example 35, 5-(indolizine-2-carbonyl)-N-(1,1,1-trifluoro-2-methylpropan-2-yl)-2H,4H,5H,6H,7H-pyrazolo[4,3-c]pyridine-3-carboxamide], for which, in experiment [1] (setting [2]), the IC50 is less than 100 µM.

`CC(NC(=O)c1[nH]nc2c1CN(C(=O)c1cc3ccccn3c1)CC2)C1COC1` (stereo not shown) [Example 41, 5-(indolizine-2-carbonyl)-N-[1-(oxetan-3-yl)ethyl]-2H,4H,5H,6H,7H-pyrazolo[4,3-c]pyridine-3-carboxamide]: the IC50 in experiment [1] (setting [2]) is less than 100 µM.

Regarding `O=C(c1cc2ccccn2c1)N1CCc2[nH]nc(-n3ccnn3)c2C1` [Example 28, 2-[3-(1H-1,2,3-triazol-1-yl)-1H,4H,5H,6H,7H-pyrazolo[4,3-c]pyridine-5-carbonyl]indolizine], the IC50 in experiment [1] (setting [2]) is less than 100 µM.

For `O=C(NCC1CCCOC1)c1[nH]nc2c1CN(C(=O)c1cc3ccccn3c1)CC2` (stereo not shown) [Example 30, 5-(indolizine-2-carbonyl)-N-[(oxan-3-yl)methyl]-2H,4H,5H,6H,7H-pyrazolo[4,3-c]pyridine-3-carboxamide], in experiment [1] (setting [2]), the IC50 was less than 100 µM.

For the compound `C[C@@H](NC(=O)c1[nH]nc2c1CN(C(=O)c1cc3ccccn3c1)CC2)C(F)(F)F` [Example 46, 5-(indolizine-2-carbonyl)-N-[(2R)-1,1,1-trifluoropropan-2-yl]-2H,4H,5H,6H,7H-pyrazolo[4,3-c]pyridine-3-carboxamide], the IC50 in experiment [1] (setting [2]) is less than 100 µM.
